Source: ChEMBL document CHEMBL1135788, “Novel structures derived from 2-[[(2-pyridyl)methyl]thio]-1H-benzimidazole as anti-Helicobacter pylori agents, Part 1” (2002)
Converted amounts (≈) assume the structure as drawn. “And” between values parts separate entries of the source, which are not always exact repeats. Identical values can stand only once.

system: Escherichia coli; experiment: Minimum bactericidal concentration against Escherichia coli K-12; type: functional

Question: Cc1c(OCC(C)C)ccnc1CNc1nc2ccccc2[nH]1 was tested. Which MBC did it give?
Answer: The MBC was 206 µM (≈ 63.9 µg/mL).

system: Helicobacter pylori; experiment: (§1) Minimum bactericidal concentration against Helicobacter pylori ATCC 43504; type: functional

Question: Cc1c(OCC(C)C)ccnc1CNc1nc2ccccc2[nH]1 was tested. Which MBC did it give?
Answer: The MBC was 26 µM (≈ 8.07 µg/mL).

system: Helicobacter pylori; experiment: Minimum bactericidal concentration against Helicobacter pylori ATCC 43504; range 2-4 ug/mL; type: functional

Question: For Cc1ncc([N+](=O)[O-])n1CCO [METRONIDAZOLE], which MBC is on record?
Answer: Its MBC is 2 µg/mL (≈ 11.7 µM).

system: Helicobacter pylori; experiment: as §1; type: functional

Question: With COCCOCCOCCSc1cccc(CNc2nc3ccccc3[nH]2)c1C as the compound, how does the MBC read?
Answer: Its MBC is 32 µg/mL (≈ 77 µM).

system: Staphylococcus aureus; experiment: Minimum bactericidal concentration against Staphylococcus aureus CCUG 1800T; type: functional

Question: For Cc1c(OCC(C)C)ccnc1CNc1nc2ccccc2[nH]1, which MBC is on record?
Answer: Its MBC is 64 µg/mL (≈ 206 µM).

system: Helicobacter pylori; experiment: as §1; type: functional; remark: another data set of the same source

Question: With Cc1c(CSc2nc3ccccc3o2)cccc1OCC(C)C as the compound, how does the MBC read?
Answer: Its MBC is 64 µg/mL and 195 µM.

Question: For Cc1c(CCc2nc3ccccc3s2)cccc1OCC(C)C, which MBC is on record?
Answer: The MBC was 32 µg/mL and 98 µM.

Question: Which MBC does the source give for Cc1c(OCC(C)C)ccnc1COc1nc2ccccc2o1 here?
Answer: The MBC was 16 µg/mL and 51 µM.

Question: With COCCOCCOCCSc1cccc(CSc2nc3ccccc3[nH]2)c1C as the compound, how does the MBC read?
Answer: Its MBC is 0.5 µg/mL and 1.16 µM.

Question: With Cc1c(CSc2nc3ccccc3s2)cccc1OCC(C)C as the compound, how does the MBC read?
Answer: The MBC was > 128 µg/mL and > 373 µM.

Question: COCCOCCOCCOCCOCCSc1cccc(CSc2nc3ccccc3[nH]2)c1C was tested. Which MBC did it give?
Answer: Its MBC is 0.5 µg/mL and 0.96 µM.

Question: How did the MBC turn out when Cc1c(OCC(C)C)ccnc1CCc1nc2ccccc2o1 was run?
Answer: Its MBC is 32 µg/mL and 103 µM.

Question: Cc1c(OCC(C)C)ccnc1CNc1nc2ccccc2s1 was tested. Which MBC did it give?
Answer: The MBC was 32 µg/mL and 98 µM.

Question: Which MBC does the source give for COCCOCCOCCOCCOCCOc1cccc(CSc2nc3ccccc3[nH]2)c1C here?
Answer: The MBC was 2 µg/mL and 3.96 µM.

Question: For COCCOCCOCCOc1cccc(CSc2nc3ccccc3[nH]2)c1C, which MBC is on record?
Answer: The MBC was 4 µg/mL and 9.6 µM.

Question: CCC(=O)c1ccc2[nH]c(SCc3cccc(SCCOCCOCCOCCOCCOC)c3C)nc2c1 was tested. Which MBC did it give?
Answer: The MBC was 2 µg/mL and 3.47 µM.

Question: How did the MBC turn out when Cc1c(CNc2nc3ccccc3[nH]2)cccc1OCC(C)C was run?
Answer: Its MBC is 2 µg/mL and 6.5 µM.

Question: With Cc1c(CNc2nc3ccccc3[nH]2)cccc1SCCN1CCOCC1 as the compound, how does the MBC read?
Answer: The MBC was 32 µg/mL and 107 µM.

Question: How did the MBC turn out when Cc1c(CSc2nc3ccccc3[nH]2)cccc1SCC(C)C was run?
Answer: The MBC was 4 µg/mL and 8.76 µM.

Question: How did the MBC turn out when Cc1c(CSc2nc3ccccc3[nH]2)cccc1SCCn1c([N+](=O)[O-])cnc1C was run?
Answer: Its MBC is 2 µg/mL and 4.55 µM.

Question: Which MBC does the source give for Cc1c(CCc2nc3ccccc3[nH]2)cccc1OCC(C)C here?
Answer: The MBC was 8 µg/mL and 26 µM.

Question: Which MBC does the source give for Cc1c(OCC(C)C)ccnc1CSc1nc2ccccc2o1 here?
Answer: The MBC was 32 µg/mL and 81 µM.

Question: How did the MBC turn out when Cc1c(CSc2nc3ccccc3[nH]2)cccc1OCC(C)C was run?
Answer: The MBC was 8 µg/mL and 19 µM.

Question: With Cc1c(OCC(C)C)ccnc1CCc1nc2ccccc2[nH]1 as the compound, how does the MBC read?
Answer: The MBC was 32 µg/mL and 103 µM.

Question: Which MBC does the source give for Cc1c(OCC(C)C)ccnc1CCc1cc2ccccc2o1 here?
Answer: The MBC was 16 µg/mL and 52 µM.

Question: Cc1c(CCc2cc3ccccc3o2)cccc1OCC(C)C was tested. Which MBC did it give?
Answer: The MBC was 128 µg/mL and 415 µM.

Question: Which MBC does the source give for COCCOCCOCCSc1cccc(CNc2nc3ccccc3[nH]2)c1C here?
Answer: The MBC was 77 µM.

Question: For Cc1c(OCC(C)C)ccnc1CNc1nc2ccccc2[nH]1, which MBC is on record?
Answer: Its MBC is 8 µg/mL.

Question: Which MBC does the source give for COCCOCCOCCOCCOCCSc1cccc(CSc2nc3cc(CO)ccc3[nH]2)c1C here?
Answer: The MBC was 8 µg/mL and 15 µM.

Question: Which MBC does the source give for Cc1c(OCC(C)C)ccnc1CNc1nc2ccccc2o1 here?
Answer: The MBC was 32 µg/mL and 103 µM.

Question: Which MBC does the source give for Cc1c(OCC(C)C)ccnc1CSc1cc2ccccc2[nH]1 here?
Answer: The MBC was 4 µg/mL and 12 µM.

Question: Which MBC does the source give for Cc1c(CSc2nc3ccccc3[nH]2)cccc1SCCn1cncn1 here?
Answer: Its MBC is 4 µg/mL and 10.5 µM.

Question: Which MBC does the source give for Cc1c(CCc2cc3ccccc3[nH]2)cccc1OCC(C)C here?
Answer: The MBC was 16 µg/mL and 52 µM.

Question: Which MBC does the source give for Cc1c(COc2nc3ccccc3o2)cccc1OCC(C)C here?
Answer: Its MBC is 32 µg/mL and 103 µM.

Question: With COCCOCCOCCSc1cccc(CNc2nc3ccccc3s2)c1C as the compound, how does the MBC read?
Answer: The MBC was 4 µg/mL and 9.25 µM.

Question: How did the MBC turn out when Cc1c(OCC(C)C)ccnc1CSc1nc2ccccc2[nH]1 was run?
Answer: Its MBC is 1 µg/mL and 3 µM.

Question: Cc1c(CSc2cc3ccccc3[nH]2)cccc1OCC(C)C was tested. Which MBC did it give?
Answer: The MBC was 32 µg/mL and 98 µM.

Question: With Cc1c(CSc2nc3ccccc3[nH]2)cccc1SCCN1CCOCC1 as the compound, how does the MBC read?
Answer: The MBC was 1 µg/mL and 2.5 µM.

Question: With Cc1c(CSc2nc3ccccc3[nH]2)cccc1OCCN1CCOCC1 as the compound, how does the MBC read?
Answer: Its MBC is 16 µg/mL and 42 µM.

Question: Which MBC does the source give for Cc1c(OCC(C)C)ccnc1COc1nc2ccccc2s1 here?
Answer: The MBC was 16 µg/mL and 49 µM.

Question: CCOC(=O)c1ccc2[nH]c(SCc3cccc(SCCOCCOCCOCCOCCOC)c3C)nc2c1 was tested. Which MBC did it give?
Answer: Its MBC is 2 µg/mL and 3.37 µM.

Question: For Cc1c(OCC(C)C)ccnc1CCc1nc2ccccc2s1, which MBC is on record?
Answer: The MBC was 16 µg/mL and 49 µM.

Question: For Cc1c(OCC(C)C)ccnc1CSc1nc2ccccc2s1, which MBC is on record?
Answer: The MBC was 32 µg/mL and 93 µM.

Question: Cc1c(CNc2nc3ccccc3s2)cccc1OCC(C)C was tested. Which MBC did it give?
Answer: Its MBC is > 128 µg/mL and > 392 µM.

Question: With COCCOCCOCCOCCOCCSc1cccc(CSc2nc3cc(N)ccc3[nH]2)c1C as the compound, how does the MBC read?
Answer: Its MBC is 8 µg/mL and 15 µM.

Question: How did the MBC turn out when Cc1c(CCc2nc3ccccc3o2)cccc1OCC(C)C was run?
Answer: The MBC was 16 µg/mL and 52 µM.

Question: Which MBC does the source give for Cc1c(CNc2nc3ccccc3o2)cccc1OCC(C)C here?
Answer: The MBC was > 128 µg/mL and > 412 µM.

Question: Which MBC does the source give for Cc1c(COc2nc3ccccc3s2)cccc1OCC(C)C here?
Answer: Its MBC is 128 µg/mL and 391 µM.

Question: With CC1(C)S[C@@H]2[C@H](NC(=O)[C@H](N)c3ccc(O)cc3)C(=O)N2[C@H]1C(=O)O [AMOXICILLIN] as the compound, how does the MBC read?
Answer: The MBC was 0.05 µg/mL.

Question: How did the MBC turn out when CC[C@H]1OC(=O)[C@H](C)[C@@H](O[C@H]2C[C@@](C)(OC)[C@@H](O)[C@H](C)O2)[C@H](C)[C@@H](O[C@@H]2O[C@H](C)C[C@H](N(C)C)[C@H]2O)[C@](C)(OC)C[C@@H](C)C(=O)[C@H](C)[C@@H](O)[C@]1(C)O [CLARITHROMYCIN] was run?
Answer: Its MBC is 0.1 µg/mL.
